Data reported in the NIST ThermoML archive (doi:10.1021/acs.jced.8b00578).
Numbers after ± are expanded uncertainties.

Legend:
[1] = Molar enthalpy of transition or fusion; conditions: Crystal; DSC
[2] = Crystal; DSC

## O=C(O)c1cc2ccccc2cc1O [3-hydroxy-2-naphthoic acid]
[1]
  Molar enthalpy of transition or fusion: 6.62 ± 0.311 kcal/mol
[2]
  Triple point temperature: 494.4 ± 0.81 K
